Several values for one entry are separate records, joined by “and”; a condition that tells them apart may be missing. Equal values may be shown once.
Target: T1, human recombinant serotonin (5-Hydroxytryptamine) 5-HT7 receptor (Homo sapiens, UniProt P34969)
T1 construct: expressed in transfected cells; host or cells: CHO cells
Experiment: Serotonin 5-HT7 radioligand binding ([3H]LSD)
Details: read-out: Serotonin 5-HT7, inhibition of ligand binding (1 μM)
Method: To evaluate in radioligand binding assays the activity of compounds of the invention, human recombinant serotonin (5-Hydroxytryptamine) 5-HT7 receptor expressed in Chinese hamster ovary (CHO) cells (Roth, B. L. et al., J. Pharmacol. Exp. Ther. 268:1403, 1994; Shen, Y. et al., J. Biol. Chem. 268:18200, 1993) in a modified Tris-HCl buffer (50 mM Tris-HCl, pH 7.4, 10 mM MgCl2, 0.5 mM EDTA) was used. Compounds of invention were incubated with 5.5 nM [^3H] Lysergic acid diethylamide (LSD) for 2 hours at 25° C. Non-specific binding was estimated in the presence of 10 μM Serotonin (5-HT). Receptor proteins were filtered and washed, the filters were then counted to determine [^3H]LSD specifically bound. Compounds were screened at 1 μM or lower, using 1% DMSO as vehicle. Biochemical assay results are presented as the percent inhibition of specific binding in Table 4.

T1 sequence (P34969 whole entry): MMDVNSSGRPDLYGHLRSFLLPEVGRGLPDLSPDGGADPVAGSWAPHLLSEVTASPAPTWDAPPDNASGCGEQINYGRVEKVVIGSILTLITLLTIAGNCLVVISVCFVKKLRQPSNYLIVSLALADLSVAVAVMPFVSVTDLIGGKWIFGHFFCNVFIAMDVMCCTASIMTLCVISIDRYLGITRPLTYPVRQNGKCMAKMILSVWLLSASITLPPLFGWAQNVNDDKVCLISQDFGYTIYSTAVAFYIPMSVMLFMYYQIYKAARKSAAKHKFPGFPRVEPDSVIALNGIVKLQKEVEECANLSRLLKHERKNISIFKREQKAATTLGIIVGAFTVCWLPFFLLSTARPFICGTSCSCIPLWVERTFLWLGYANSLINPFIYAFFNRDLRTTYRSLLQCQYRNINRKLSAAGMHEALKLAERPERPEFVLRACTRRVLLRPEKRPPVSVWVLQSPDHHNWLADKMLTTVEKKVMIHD

Point of comparison: `C/C(=C\n1c2c(c3cc(Cl)ccc31)C1CCC(C2)N1C)c1ccc(F)cc1` (stereo not drawn) [Compound 123], inhibition at 1 µM 97%. Against it:
- CN1C2CCC1c1c(n(CC(=O)c3ccc(Cl)cc3)c3ccc(Cl)cc13)C2 (stereo not drawn) [Compound 111] — lower, 78%
- C/C(=C\n1c2c(c3cc(C)ccc31)C1CCC(C2)N1C)c1ccc(Cl)cc1 (stereo not drawn) [Compound 116] — lower, 92%
- C/C(=C\n1c2c(c3cc(C)ccc31)C1CCC(C2)N1C)c1ccc(F)cc1 (stereo not drawn) [Compound 124] — lower, 91%
- C/C(=C\n1c2c(c3cc(Cl)ccc31)C1CCC(C2)N1C)c1ccc(Cl)cc1 (stereo not drawn) [Compound 125] — lower, 95%
- COc1ccc(/C(C)=C/n2c3c(c4cc(Cl)ccc42)C2CCC(C3)N2C)cc1F (stereo not drawn) [Compound 136] — lower, 79%
- CN1C2CCC1c1c(n(C#Cc3ccc(F)cc3)c3ccc(Cl)cc13)C2 (stereo not drawn) [Compound 138] — lower, 91%
- Cc1ccc(C#Cn2c3c(c4cc(Cl)ccc42)C2CCC(C3)N2C)cn1 (stereo not drawn) [Compound 139] — the same, 97%
- Cc1ccc2c(c1)c1c(n2C#Cc2ccc(F)cc2)CC2CCC1N2C (stereo not drawn) [Compound 141] — lower, 48%

Target: T2, human recombinant serotonin (5-Hydroxytryptamine) 5-HT2A receptor (Homo sapiens, UniProt P28223)
T2 construct: expressed in transfected cells; host or cells: CHO-K1 cells
Experiment: Serotonin 5-HT2A radioligand binding ([3H]Ketanserin)
Details: 1 µM
Method: To evaluate in radioligand binding assays the activity of compounds of the invention, human recombinant serotonin (5-Hydroxytryptamine) 5-HT2A receptor expressed in Chinese hamster ovary (CHO-K1) cells (Bonhaus, D. W. et al. Br. J. Pharmacol. 115:622, 1995; Saucier, C. and Albert, P. R., J. Neurochem. 68:1998, 1997) in a 50 mM Tris-HCl buffer, pH 7.4, was used. Compounds of the invention were incubated with 0.5 nM [^3H]Ketanserin for 60 minutes at 25° C. Non-specific binding was estimated in the presence of 1 μM Mianserin. Receptor proteins were filtered and washed, the filters were then counted to determine [^3H]Ketanserin specifically bound. Compounds were screened at 1 μM or lower, using 1% DMSO as vehicle. Biochemical assay results are presented as the percent inhibition of specific binding in Table 4.

T2 sequence (P28223 whole entry): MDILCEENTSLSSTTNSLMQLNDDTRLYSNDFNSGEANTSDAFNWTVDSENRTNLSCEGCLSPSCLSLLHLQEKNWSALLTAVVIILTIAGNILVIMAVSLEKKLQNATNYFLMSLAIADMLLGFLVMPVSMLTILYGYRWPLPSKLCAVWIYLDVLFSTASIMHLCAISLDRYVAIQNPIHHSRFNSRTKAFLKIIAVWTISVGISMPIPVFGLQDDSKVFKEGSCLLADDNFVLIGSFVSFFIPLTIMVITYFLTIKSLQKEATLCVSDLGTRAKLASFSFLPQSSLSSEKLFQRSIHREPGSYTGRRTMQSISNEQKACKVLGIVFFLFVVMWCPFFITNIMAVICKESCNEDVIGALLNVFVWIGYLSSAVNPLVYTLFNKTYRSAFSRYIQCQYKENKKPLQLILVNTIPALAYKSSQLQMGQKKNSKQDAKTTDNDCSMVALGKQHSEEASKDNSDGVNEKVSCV

In the case of `CN1C2CCC1c1c(n(CCc3ccc(C(F)(F)F)nc3)c3ccc(Cl)cc13)C2` (stereo not drawn) [Compound 34], the “Serotonin 5-HT2A, inhibition of ligand binding (1 μM)” value is reported as 36.0/ % and 65.0%.

`Cc1ccc2c(c1)c1c(n2CCc2ccc(C(F)(F)F)nc2)CC2CCC1N2C` (stereo not drawn) [Compound 71] was tested, and the “Serotonin 5-HT2A, inhibition of ligand binding (1 μM)” value was 34.0%.

Same assay, conditions: read-out: Serotonin 5-HT2A, inhibition of ligand binding (1 μM)

Point of comparison: `Cc1ccc2c(c1)c1c(n2C#Cc2ccc(F)cc2)CC2CCC1N2C` (stereo not drawn) [Compound 141], inhibition at 1 µM 93%. Against it:
- CN1C2CCC1c1c(n(CCC(=O)N3CCNC(=O)C3)c3ccc(Cl)cc13)C2 (stereo not drawn) [Compound 3] — lower, 3%
- CC(=O)N1CCN(C(=O)CCn2c3c(c4cc(Cl)ccc42)C2CCC(C3)N2C)CC1 (stereo not drawn) [Compound 8] — lower, 1%
- CN1C2CCC1c1c(n(CCC(=O)N3CCNCC3)c3ccc(Cl)cc13)C2 (stereo not drawn) [Compound 9] — lower, 15%
- CN1C2CCC1c1c(n(CCC(=O)N3CC[S+]([O-])CC3)c3ccc(Cl)cc13)C2 (stereo not drawn) [Compound 10] — lower, -5%
- CN1C2CCC1c1c(n(CCC(=O)N3CCS(=O)(=O)CC3)c3ccc(Cl)cc13)C2 (stereo not drawn) [Compound 11] — lower, -8%
- CN1C2CCC1c1c(n(CCC(=O)N3CCSCC3)c3ccc(Cl)cc13)C2 (stereo not drawn) [Compound 12] — lower, 10%
- Cc1ccc2c(c1)c1c(n2CCc2ccc(C)nc2)CC2CCC1N2C (stereo not drawn) [Compound 32] — lower, 15%
- CN1C2CCC1c1c(n(CCCc3ccc(C(F)(F)F)nc3)c3ccc(Cl)cc13)C2 (stereo not drawn) [Compound 37] — lower, 23%
- Cc1ccc(CCCn2c3c(c4cc(Cl)ccc42)C2CCC(C3)N2C)cn1 (stereo not drawn) [Compound 38] — lower, 13%
- CN1C2CCC1c1c(n(CCCc3ccc(Cl)cc3)c3ccc(Cl)cc13)C2 (stereo not drawn) [Compound 39] — lower, 87%
- Cc1ccc(C(O)Cn2c3c(c4cc(Cl)ccc42)C2CCC(C3)N2C)cn1 (stereo not drawn) [Compound 52] — lower, 21%
- Cc1ccc2c(c1)c1c(n2CC(C)(O)c2ccc(Cl)cc2)CC2CCC1N2C (stereo not drawn) [Compound 54] — higher, 100%
- CCOC(=O)CCn1c2c(c3cc(Cl)ccc31)C1CCC(C2)N1C (stereo not drawn) [Compound 70, ethyl 3-(2-chloro-11-methyl-5,6,7,8,9,10-hexahydro-7,10-iminocyclohept[b]indol-5-yl)propanoate] — lower, 16%
- Cc1ccc2c(c1)c1c(n2CCc2ccc(C(F)(F)F)nc2)CC2CCC1N2C (stereo not drawn) [Compound 71] — lower, 22%
- CN1C2CCC1c1c(n(CCC(=O)O)c3ccc(Cl)cc13)C2 (stereo not drawn) [Compound 72] — lower, -6%
- CN1C2CCC1c1c(n(CCC(N)=O)c3ccc(Cl)cc13)C2 (stereo not drawn) [Compound 73] — lower, -9%
- CN1C2CCC1c1c(n(CCc3ccc(C(F)(F)F)nc3)c3cc(F)c(Cl)cc13)C2 (stereo not drawn) [Compound 77] — lower, 26%
- Cc1ccc(CCn2c3c(c4cc(Cl)ccc42)C2CCC(C3)N2C)cn1 (stereo not drawn) [Compound 79] — lower, 28%
- CN1C2CCC1c1c(n(CCc3cccnc3)c3ccc(Cl)cc13)C2 (stereo not drawn) [Compound 80] — lower, 33%
- Cc1ccc2c(c1)c1c(n2CCc2cnc(C)nc2)CC2CCC1N2C (stereo not drawn) [Compound 81] — lower, -12%
- Cc1ncc(CCn2c3c(c4cc(Cl)ccc42)C2CCC(C3)N2C)cn1 (stereo not drawn) [Compound 82] — lower, -16%
- COc1ccc(CCn2c3c(c4cc(C)ccc42)C2CCC(C3)N2C)cc1 (stereo not drawn) [Compound 83] — lower, 71%
- COc1ccc(CCn2c3c(c4cc(Cl)ccc42)C2CCC(C3)N2C)cc1 (stereo not drawn) [Compound 84] — lower, 77%
- Cc1ccc2c(c1)c1c(n2CCCc2ccc(Cl)cc2)CC2CCC1N2C (stereo not drawn) [Compound 85] — higher, 95%
- Cc1ccc2c(c1)c1c(n2CCc2cccnc2)CC2CCC1N2C (stereo not drawn) [Compound 86] — lower, 64%
- CN1C2CCC1c1c(n(CCc3cncc(Cl)c3)c3ccc(Cl)cc13)C2 (stereo not drawn) [Compound 87] — lower, 51%
- Cc1ccc2c(c1)c1c(n2CCc2cncc(Cl)c2)CC2CCC1N2C (stereo not drawn) [Compound 88] — lower, 55%
- Cc1cncc(CCn2c3c(c4cc(Cl)ccc42)C2CCC(C3)N2C)c1 (stereo not drawn) [Compound 89] — lower, 27%
- Cc1cncc(CCn2c3c(c4cc(C)ccc42)C2CCC(C3)N2C)c1 (stereo not drawn) [Compound 90] — lower, 30%
- Cc1ccc2c(c1)c1c(n2CC(O)c2ccc(C)nc2)CC2CCC1N2C (stereo not drawn) [Compound 91] — lower, 2%
- Cc1ccc(CCn2c3c(c4ccccc42)C2CCC(C3)N2C)cn1 (stereo not drawn) [Compound 92] — lower, 16%
- Cc1ccc2c(c1)c1c(n2CC(=O)N2CCCCC2)CC2CCC1N2C (stereo not drawn) [Compound 93] — lower, -12%
- CN1[C@@H]2CC[C@H]1c1c(n(CCc3ccc(F)cc3)c3ccc(F)cc13)C2 [Compound 94, (+)-(7S,10R)-2-Fluoro-5-(4-fluorophenethyl)-11-methyl-5,6,7,8,9,10-hexahydro-7,10-iminocyclohept[b]indole] — lower, 81%
- CN1[C@H]2CC[C@@H]1c1c(n(CCc3ccc(F)cc3)c3ccc(F)cc13)C2 [Compound 95, (−)-(7R,10S)-2-Fluoro-5-(4-fluorophenethyl)-11-methyl-5,6,7,8,9,10-hexahydro-7,10-iminocyclohept[b]indole] — lower, 57%
- CN1[C@@H]2CC[C@H]1c1c(n(CCc3ccc(C(F)(F)F)nc3)c3ccccc13)C2 [Compound 97] — lower, 25%
- CN1[C@@H]2CC[C@H]1c1c(n(CC(C)(O)c3ccc(F)cc3)c3ccccc13)C2 (stereo partly drawn) [Compound 99] — lower, 73%
- CN1[C@@H]2CC[C@H]1c1c(n(CC(=O)N3CCCCC3)c3ccccc13)C2 [Compound 101] — the same, 93%
- Cc1ccc(CCn2c3c(c4ccccc42)[C@@H]2CC[C@H](C3)N2C)cn1 [Compound 102] — lower, 11%
- Cc1ccc2c(c1)c1c(n2CCC#N)CC2CCC1N2C (stereo not drawn) [Compound 103] — lower, 13%
- CN1C2CCC1c1c(n(CCC#N)c3ccc(Cl)cc13)C2 (stereo not drawn) [Compound 107] — lower, 5%
- CN1C2CCC1c1c(n(CC(=O)c3ccccc3)c3ccc(Cl)cc13)C2 (stereo not drawn) [Compound 110] — lower, 83%
- CN1C2CCC1c1c(n(CC(=O)c3ccc(Cl)cc3)c3ccc(Cl)cc13)C2 (stereo not drawn) [Compound 111] — higher, 94%
- Cc1ccc2c(c1)c1c(n2CCc2nc(-c3ccccc3)cs2)CC2CCC1N2C (stereo not drawn) [Compound 114] — lower, 88%
- C/C(=C\n1c2c(c3cc(C)ccc31)C1CCC(C2)N1C)c1ccc(Cl)cc1 (stereo not drawn) [Compound 116] — lower, 90%
- C/C(=C/n1c2c(c3ccccc31)[C@@H]1CC[C@H](C2)N1C)c1ccc(F)cc1 [Compound 121] — higher, 98%
- C/C(=C\n1c2c(c3cc(Cl)ccc31)C1CCC(C2)N1C)c1ccc(F)cc1 (stereo not drawn) [Compound 123] — higher, 97%
- C/C(=C\n1c2c(c3cc(C)ccc31)C1CCC(C2)N1C)c1ccc(F)cc1 (stereo not drawn) [Compound 124] — higher, 97%
- C/C(=C\n1c2c(c3cc(Cl)ccc31)C1CCC(C2)N1C)c1ccc(Cl)cc1 (stereo not drawn) [Compound 125] — higher, 101%
- COc1ccc(/C(C)=C/n2c3c(c4cc(Cl)ccc42)C2CCC(C3)N2C)cc1F (stereo not drawn) [Compound 136] — higher, 99%
- CN1C2CCC1c1c(n(C#Cc3ccc(F)cc3)c3ccc(Cl)cc13)C2 (stereo not drawn) [Compound 138] — higher, 98%
- Cc1ccc(C#Cn2c3c(c4cc(Cl)ccc42)C2CCC(C3)N2C)cn1 (stereo not drawn) [Compound 139] — lower, 88%

Source: patent publication US8546381B2, “Bridged heterocyclic compounds and methods of use” (Medivation Technologies, Inc., priority 2008, dated 2013)
